Measurements reported in patent US20030005484A1, “Microbiocidal and pesticidal aromatic aldehydes” (ProGuard, Inc., priority 1994, published 2003).

Legend:
[1] = test system: rust; test: rust (and spores) on roses, disease rating / MPDC after foliar spray; format: in vivo, Phragmidrium mucronatrum
Procedure: Each formulation is evaluated for its effect on specific pests and/or plant host using any of the compounds of formula (1) as well as other components of the formulation such as Tween 80 and/or sodium bicarbonate, with the combination and effective amount of each component adapted for a particular application to minimize toxicity while maintaining or increasing the antipathogenic effect of the formulation. The effective amount of each component may be determined by systematically varying the amount of that component in a test formulation, treating a plant of interest with the test formulation, and monitoring the level of pest infestation compared to an untreated control plant. An effective amount of a test component is identified as the amount that controls the growth of the pathogen on the plant host, thus reducing the disease rating of the plant. The mean percentage disease […] (MPDC) can be calculated for each particular application. MPDC is defined by the formula: [formula] Eight cultivars of rose were tested to investigate the effect of a cinnamic aldehyde/NaHCO3 formulation on rust and spores. The cultivars used included Moss unnamed (Moss), […], Rosette Delize (Hybrid Tea), Rosa Rugosa Rubra (Rugosa), Abel Morrison (Hybrid perpetual), John Laing, Betty Prior, and Rose de Roi. […] The Hybrid Tea and Hybrid perpetual were rated 3 and the Rugosa was rated 1. […] Control plants received no treatment. […] Moreover, the treatment appeared to have induced systemic resistance. […] Plants were an average of 0.86 m apart. […] Controls were untreated plants. […] Weekly reviews were made of the various plants. […] Six cultivars of infected rose in dedicated experimental rose gardens were used. Four Mrs. John Laing (Hybrid perpetual) and two Marchionese of Londonderry (Hybrid perpetual) rose plants were treated with one of two formulations of coniferyl aldehyde. […] The first two Mrs. […] Mrs. […] Both Marchionese of Londonderry plants (P5 and P6) were rated 5 for powdery mildew and rust after Paulus and Nelson (supra). Two treatment formulae were used for this trial. […] Control plants were sprayed with water alone. The change in the rating from pre-treatment to post-treatment was calculated as the mean percentage of disease control (MPDC) as described herein.

[2] = test system: western flower thrips, Frankliniella occidentalis; test: western flower thrips dose-mortality on miniature rose foliage; format: in vivo
Procedure: Dose-mortality response of CNMA formula against western flower thrips, Frankliniella occidentalis, was evaluated. Three different dose levels of the CNMA formulation were tested in comparison with a water only control. Tests were conducted using 500 ml ventilated paper cartons as experimental areas containing miniature rose foliage with approximately 30 adult F. occidentalis in each. An F. occidentalis colony (U.C. Davis, Department of Entomology) maintained on chrysanthemums and miniature rose was the source of thrips for the study. Three active ingredient dose levels (0.1, 0.3, and 1.0%) were sprayed onto the plants using a laboratory spray tower calibrated to spray the field equivalent of 113 L per acre at the desired dosage. Four replicates (4 observations per treatment) were compared for each dosage. For each test, treatment cartons received the treatment and were maintained at room temperature. […] Table 20 presents the mean mortality treatment data.

[3] = test system: Ring Nematode; test: vineyard grape vines, nematode infestation: ring; format: in vivo
Procedure: The subject formulations were tested for ability to reduce grape vine infestation by root knot, ring, stubby root, and roll lesion nematodes. Grape vines (Harmony rootstock) in a vinyard were treated with 1000 ppm or 3000 ppm cinnamaldehyde in 2% Tween 80, the commercial anti-nematode agent Nemacur, or a formulation blank. The extent of nematode infestation was determined at the time of treatment and at 30 and 60 days post-treatment.

[4] = test system: grape phylloxera eggs; test: whole plant or invertebrate; conditions: for eggs that did not hatch completely (IH) / nymphs that died in the shell (DIS): 7 days
Procedure: Mixed age groups of 60 grape phylloxera eggs were established on filter paper (Whatman #1, 5.5 cm circles) in 50×9 mm sealed plastic petri dishes treated with 100 μl of solution. A selected concentration of a test formulation of 400 μl was added to the filter disk and the dish closed with the petri dish cover and placed in a plastic container box. After 6 hours, the box was placed in an environmental chamber at 24° C. in the dark. The eggs were placed in groups of 10. After one week, the percentage of hatch is determined. In an initial test, doses from 0.1 to 25,000 ppm cinnamic aldehyde in 6% NaHCO3 and 2% Tween 80 were evaluated with a single group of eggs at each dosage. Three replicates of the experiment were performed. […] LD50 and LD95 were determined by probit analysis.
Grape phylloxera eggs were treated with cinnamaldehyde (CNMA) in a 6% NaHCO3, 2% Tween-80 formulation in a laboratory bioassay. Mortality of the eggs was indicated by failure of the egg shell to split. […] Leaves of one-year-old greenhouse Vitis vinifera cultivar Merlot vines heavily infested with grape phylloxera were sprayed to run-off with a CNMA treatment using the same formulation. […] Roots taken from plants 1, 2 and 5 weeks after CNMA or other treatments were placed in Petri dish bioassays and infested with untreated phylloxera eggs.
Eggs of various age classes were placed on Whatman #1 filter paper moistened with enough treatment solution to form a meniscus about halfway up the sides of the eggs. The pieces of filter paper with eggs were maintained in sealed plastic Petri dishes at […] until they were 7 days old and then hatched individuals were counted. Hatch was considered successful if the […]

[5] = potted roses, ~100 ml foliar spray of 5 g cinnamic aldehyde, 80 g NaHCO3, 10 g Tween 80 per 1000 g, weekly saponin, observed 8 weeks
[6] = 10 ppm in 6% NaHCO3, 2% Tween 80
[7] = 100 ppm in 6% NaHCO3, 2% Tween 80

## O=C/C=C/c1ccccc1 [cinnamic aldehyde]
[1]; field rose Rose de Roi, same single spray, five week trial
  Mean Percentage of Disease Control (MPDC), rust: 85.0%
[1]; [5]
  rust after a single treatment: eradicative
  spores after a single treatment: eradicative
[2]; 0.1% CNMA (C), sampling time 1615
  Mean Thrip Mortality: 0.13
[2]; 0.1% CNMA (C), sampling time 1645
  Mean Thrip Mortality: 0.17
[2]; 0.1% CNMA (C), sampling time 1715
  Mean Thrip Mortality: 0.17
[2]; 0.1% CNMA (C), sampling time 1845
  Mean Thrip Mortality: 0.19
[2]; 0.1% CNMA (C), sampling time 2215
  Mean Thrip Mortality: 0.25
[2]; 0.3% CNMA (B), sampling time 1615
  Mean Thrip Mortality: 0.26
[2]; 0.3% CNMA (B), sampling time 1645
  Mean Thrip Mortality: 0.28
[2]; 0.3% CNMA (B), sampling time 1715
  Mean Thrip Mortality: 0.28
[2]; 0.3% CNMA (B), sampling time 1845
  Mean Thrip Mortality: 0.37
[2]; 0.3% CNMA (B), sampling time 2215
  Mean Thrip Mortality: 0.40
[2]; 1.0% CNMA (A), sampling time 1615
  Mean Thrip Mortality: 0.79
[2]; 1.0% CNMA (A), sampling time 1645
  Mean Thrip Mortality: 0.82
[2]; 1.0% CNMA (A), sampling time 1715
  Mean Thrip Mortality: 0.78
[2]; 1.0% CNMA (A), sampling time 1845
  Mean Thrip Mortality: 0.84
[2]; 1.0% CNMA (A), sampling time 2215
  Mean Thrip Mortality: 0.84
[3]; 1000 ppm in 2% Tween 80, 30 days post-treatment
  Ring Nematode, nematodes per 250 cc soil: 171.2 per 250 cc soil
[3]; 1000 ppm in 2% Tween 80, 60 days post-treatment
  Ring Nematode, nematodes per 250 cc soil: 1168 per 250 cc soil
[3]; 1000 ppm in 2% Tween 80, day 0 (time of treatment)
  Ring Nematode, nematodes per 250 cc soil: 47.2 per 250 cc soil
[3]; 3000 ppm in 2% Tween 80, 30 days post-treatment
  Ring Nematode, nematodes per 250 cc soil: 322.8 per 250 cc soil
[3]; 3000 ppm in 2% Tween 80, 60 days post-treatment
  Ring Nematode, nematodes per 250 cc soil: 1127 per 250 cc soil
[3]; 3000 ppm in 2% Tween 80, day 0 (time of treatment)
  Ring Nematode, nematodes per 250 cc soil: 540.2 per 250 cc soil
[4]; 6% NaHCO3, 2% Tween-80 formulation
  7 day EC50, egg mortality (failure of the egg shell to split): 115 ppm
[4]; [6]
  eggs that did not hatch completely (IH): 100%
  nymphs that died in the shell (DIS): none died in the shell
[4]; [7]
  eggs that did not hatch completely (IH): 12%
  nymphs that died in the shell (DIS): 88%
[4]; 100 ppm in 6% NaHCO3, 2% Tween 80 plus 0.86 ml of 10 brix saponin solution
  nymphs that died in the shell (DIS): 93%
[4]; 5000 ppm aldehyde in 6% NaHCO3, 2% Tween 80
  nymphs that died in the shell (DIS): all nymphs died in the shell
[4]; CNMA 100 ppm, Days of Treatment 1
  Approximate Percent Mortality, egg test: 8%
[4]; CNMA 100 ppm, Days of Treatment 2
  Approximate Percent Mortality, egg test: 0%
[4]; CNMA 100 ppm, Days of Treatment 3
  Approximate Percent Mortality, egg test: 0%
[4]; CNMA 100 ppm, Days of Treatment 4
  Approximate Percent Mortality, egg test: 6%
[4]; CNMA 100 ppm, Days of Treatment 5
  Approximate Percent Mortality, egg test: 25%
[4]; CNMA 180 ppm, Days of Treatment 1
  Approximate Percent Mortality, egg test: 100%
[4]; CNMA 180 ppm, Days of Treatment 2
  Approximate Percent Mortality, egg test: 0%
[4]; CNMA 180 ppm, Days of Treatment 3
  Approximate Percent Mortality, egg test: 0%
[4]; CNMA 180 ppm, Days of Treatment 4
  Approximate Percent Mortality, egg test: 47%
[4]; CNMA 180 ppm, Days of Treatment 5
  Approximate Percent Mortality, egg test: 72%
[4]; CNMA 320 ppm, Days of Treatment 1
  Approximate Percent Mortality, egg test: 100%
[4]; CNMA 320 ppm, Days of Treatment 2
  Approximate Percent Mortality, egg test: 37%
[4]; CNMA 320 ppm, Days of Treatment 3
  Approximate Percent Mortality, egg test: 28%
[4]; CNMA 320 ppm, Days of Treatment 4
  Approximate Percent Mortality, egg test: 85%
[4]; CNMA 320 ppm, Days of Treatment 5
  Approximate Percent Mortality, egg test: 100%
[4]; egg tests with CNMA analogs
  approximate egg hatch LD 50: 320 ppm
